This is an account of results in PubChem BioAssay (NCI).

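Following 48 hours of exposure in 96-well plates, responses at five concentrations were used to interpolate endpoints linearly. GI50: concentration for 50% inhibition of growth. TGI: concentration producing complete growth inhibition.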

Common to all, as to experiment: NCI-60 cell line screen, 48 h
Experiment [1] has as its system MALME-3M melanoma.
Experiment [2] deals with SF-295 CNS.
The subject of experiment [3] is RXF 393 renal.
Experiment [4] has as its system M14 melanoma.
Experiment [5] concerns HCT-116 colon.
In experiment [6] the test system is OVCAR-8 ovarian.
Experiment [7] has as its system SNB-75 CNS.
Experiment [8] concerns OVCAR-5 ovarian.
The test system of experiment [9] is NCI-H522 lung.
Experiment [10] concerns SR leukemia.

Turning to `N#Cc1ccccc1NC(=O)C(=O)c1c(O)c2ccccc2oc1=O`, the TGI in experiment [1], in [2], in [3], in [4], in experiment [5] and in experiment [6] was above 100 µM in each case. The TGI in experiment [7], in experiment [8] and in [9] was above 100 µM each time.
In the case of `O=C(CN(/C=C/C(=O)C(F)(F)F)c1ccc(Cl)cc1)c1ccccc1`, the GI50 is 12.1 µM in [2]; 21.7 µM in experiment [3]; 10.6 µM in [4]; 11.6 µM in experiment [5]; 44 µM in experiment [6]; 12.9 µM in experiment [7]. The GI50 is 15.6 µM in [8], 14.8 µM in experiment [10] and 6.52 µM in [9]. Further, the TGI is 41.4 µM in experiment [2]; 43.5 µM in experiment [3]; 22.9 µM in [4]; 23.7 µM in [5]; above 100 µM in experiment [6]; 41.1 µM in experiment [7]. Further, the TGI was found to be 40.7 µM in experiment [8], 57 µM in experiment [10] and 26.3 µM in experiment [9].
As to `O=C1c2nsnc2C(=O)c2c(F)c(F)c(F)c(F)c21`, the GI50 was 1.4 µM in [2]; 0.339 µM in experiment [3]; 0.249 µM in experiment [4]; 0.426 µM in experiment [5]; 2.8 µM in experiment [6]; 1.02 µM in experiment [7]. The values for the GI50 in experiment [8] and in experiment [10] were 1.93 µM and 0.0528 µM, respectively. The TGI is 2.99 µM in experiment [2]; 1.09 µM in [3]; 0.629 µM in experiment [4]; 1.36 µM in experiment [5]; 72.7 µM in experiment [6]; 2.21 µM in experiment [7]. In addition, in experiment [8], the TGI worked out at 3.47 µM.
With `C=C(C)[C@@H]1CC[C@]2(C(=O)O)CC[C@]3(C)[C@H](CC[C@@H]4[C@@]5(C)C[C@@H](CC#Cc6ccc(C(F)(F)F)cc6)[C@H](O)C(C)(C)[C@@H]5CC[C@]43C)[C@@H]12`, the GI50 in experiment [3] is 2.39 µM; in experiment [5] it was 2.34 µM; in [6], 3.55 µM; in [7], 1.73 µM; in experiment [10], 3.23 µM. Further, the TGI in [3] was 5.49 µM; in experiment [5], above 100 µM; in experiment [6], above 100 µM; in experiment [7] it was 5.14 µM; in experiment [10], above 100 µM.
For `CC1COc2c(N3CCN(C)CC3)c(F)cc3c(=O)c(C(=O)O)cn1c23` (stereo unspecified), the GI50 in [1], in experiment [2], in [3], in experiment [4], in experiment [5] and in experiment [6] was above 100 µM in each case. The GI50 is above 100 µM in experiment [7], 84.4 µM in experiment [8] and above 100 µM in experiment [9]. Further, the TGI in experiment [1], in experiment [2], in experiment [3], in experiment [4], in [5] and in experiment [6] was above 100 µM in each case. Further, the TGI in experiment [7], in [8] and in experiment [9] was above 100 µM in each case.
For the compound `O=C(c1ccccc1)[C@H]1Nc2ccc(Cl)cc2C2c3ccccc3CC21` (stereo partly specified), the TGI is 67.5 µM in experiment [2]; 45.4 µM in experiment [3]; above 100 µM in experiment [4]; above 100 µM in experiment [5]; above 100 µM in experiment [6]; above 100 µM in [7]. For the same compound, the TGI in experiment [8], in experiment [10] and in experiment [9] was above 100 µM throughout.
For `CC(=O)c1ccc(OCC(O)CO)cc1` (stereo unspecified), the TGI in [1] was above 100 µM; in experiment [2], above 100 µM; in experiment [4], above 100 µM; in [5] it was 33.5 µM; in experiment [6], above 100 µM; in experiment [7] it was above 100 µM. Further, the TGI in experiment [8] and in experiment [9] was above 100 µM throughout.
As for `COc1ccc2c(c1)[n+](=O)c(C(=O)c1ccco1)c(C(F)(F)F)n2[O-]`, the GI50 in [2] was 2.79 µM; in [3], 1.67 µM; in experiment [4], 2 µM; in experiment [5], 0.851 µM; in experiment [6], 2.23 µM; in experiment [7] it was 3.83 µM. Besides, the GI50 in experiment [8] is 3.51 µM; in [10] it was 0.346 µM; in experiment [9], 35.6 µM. Moreover, the TGI in experiment [2] is 14.7 µM; in [3], 12 µM; in [4] it was 6.72 µM; in experiment [5] it was 15.1 µM; in experiment [6], 9.41 µM; in experiment [7] it was 25.6 µM. In addition, the TGI in experiment [8] was 22.3 µM; in experiment [10], above 100 µM; in [9], above 100 µM.
As to `CN(C)c1ccc(N=C2C=CC(=[N+](C)C)C=C2)cc1`, the GI50 is 8.97 µM in [1]; 4.62 µM in experiment [2]; 23.4 µM in experiment [3]; 17.7 µM in experiment [4]; 4.04 µM in experiment [5]; 4.51 µM in experiment [6]. Further, the GI50 in [7] was 5.86 µM; in experiment [8] it was 20.4 µM; in experiment [9], 1.79 µM. The TGI is 38.6 µM in [1]; 22.1 µM in experiment [2]; above 100 µM in [3]; 81.4 µM in experiment [4]; 17.8 µM in experiment [5]; above 100 µM in experiment [6]. Also, the TGI in experiment [7] was found to be 21.2 µM; in [8] it was 76.6 µM; in experiment [9] it was 4.95 µM.
As for `NNC(=O)CNC(=O)c1ccc(Cl)cc1Cl`, the TGI in experiment [1], in experiment [2], in [4], in experiment [5], in experiment [6] and in experiment [7] was above 100 µM in each case. For the same compound, the TGI in experiment [8] and in experiment [9] was above 100 µM each time.
For `COC(=O)C(CC(C)C)NC(=O)NC12CC3CC(CC(F)(C3)C1)C2` (stereo unspecified), the TGI in [1], in [3], in experiment [4], in [5], in experiment [6] and in experiment [7] was above 100 µM each time. In addition, the TGI in experiment [8] and in experiment [9] was above 100 µM in each case.
On to `COc1ccc(C(=O)c2cc(OC)c(OC)c(OC)c2)cc1/C=C/C(=O)c1ccc(OC)c(OC)c1`, for which the GI50 was 5.26 µM in [2]; above 100 µM in experiment [3]; 2.79 µM in experiment [4]; 0.416 µM in experiment [5]; 1.85 µM in experiment [6]; 3.86 µM in experiment [7]. Further, the GI50 in experiment [8] is 3.67 µM; in experiment [10], 0.29 µM. The TGI in experiment [2], in experiment [3], in [4], in [5], in [6] and in [7] was above 100 µM in each case. Further, the TGI in [8] was above 100 µM; in experiment [10], 10.2 µM.
Turning to `O=C(/C(=C\c1ccc([N+](=O)[O-])cc1)S(=O)Cc1ccc(F)cc1)c1ccc(F)cc1` (stereo unspecified), the GI50 is 1.64 µM in experiment [1]; 1.68 µM in experiment [2]; 1.78 µM in experiment [3]; 1.79 µM in experiment [4]; 1.64 µM in experiment [5]; 2.17 µM in experiment [6]. The GI50 is 3.28 µM in experiment [7], 1.83 µM in experiment [8] and 1.77 µM in experiment [9]. The TGI was 3.55 µM in experiment [1]; 3.72 µM in experiment [2]; 3.38 µM in experiment [3]; 3.76 µM in experiment [4]; 3.07 µM in experiment [5]; 5.34 µM in experiment [6]. Further, the TGI in experiment [7] was found to be 15.3 µM; in experiment [8] it was 3.67 µM; in experiment [9], 3.31 µM.
Regarding `CC[P+](C)(C)c1ccccc1`, the TGI in [1], in [2], in [3], in experiment [4], in [6] and in [7] was above 100 µM in each case. In experiment [8], the TGI was above 100 µM.
Consider `COC(=O)/C(=N\Nc1nc(=S)[nH]n1N)C(C#N)c1ccccc1` (stereo unspecified), for which the TGI in experiment [1], in experiment [3], in experiment [4], in experiment [5], in [6] and in [7] was above 100 µM each time. Also, the TGI in experiment [8] and in [9] was above 100 µM throughout.
With `N/N=C(\C(=O)Nc1ccc(Cl)cc1Cl)C(c1cnc2ccccc2n1)[N+](=O)[O-]` (stereo unspecified), the TGI in experiment [1], in [2], in [3], in experiment [4], in experiment [5] and in [6] was above 100 µM in each case. Further, the TGI in [7], in experiment [8] and in experiment [9] was above 100 µM in each case.
`CNC(=O)OCc1c2ccncc2c(C)c2c1[nH]c1ccccc12`: the TGI came out at 1.24 µM in experiment [1]; 4.66 µM in experiment [2]; 0.17 µM in [3]; 2.95 µM in [4]; 12.7 µM in experiment [5]; 2.16 µM in experiment [6]. Also, the TGI in experiment [7] turned out to be 1.17 µM; in experiment [8], 1.78 µM; in experiment [9], 0.272 µM.
